Source: patent US20020137929A1, “1 - (3-heterocyclylphenyl) isothiourea, -isourea, -guanidine and -amidine herbicidal agents” (Intellectual Property Department, BASF Aktiengesellschaft, priority 1998, published 2002)

What was measured:
SETVI (Foxtail, Green) [1] = test: Postemergence herbicidal evaluation; format: in vivo, Setaria viridis
Outline: (§1)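 Herbicidal effect was judged by eye on a 0–9 scale covering stand, vigor, deformity, size and chlorosis, compared with controls, four to five weeks after seedlings about two weeks old were sprayed (40 psi, ~0.0156–0.500 kg/ha).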

ORYSAT (Rice, Tebonnet) = test: Postemergence herbicidal evaluation; format: in vivo, Oryza sativa, (L.) Tebonnet
Outline: as §1

ZEAMX (Corn, Field) [2] = test: Postemergence herbicidal evaluation; format: in vivo, Zea mays
Outline: as §1

ECHCG (Barnyardgrass) = test: Preemergence herbicidal evaluation; format: in vivo, Echinochloa crus-galli; settings: rated 4-5 weeks after treatment
Outline: (§2)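 Each species is sown separately in potting soil over roughly an inch of soil before any emergence. The soil surface then receives an aqueous acetone spray delivering about 0.0156 to 0.500 kg/ha of compound. After four to five weeks, injury is scored from 0 to 9 relative to a control.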

SETVI (Foxtail, Green) [3] = test: Preemergence herbicidal evaluation; format: in vivo, Setaria viridis; settings: rated 4-5 weeks after treatment
Outline: as §2

[4] = tested on: TRZAWR (Wheat, Winter, cv Riband); test: Preemergence herbicidal evaluation; format: in vivo, Triticum aestivum; settings: rated 4-5 weeks after treatment
Outline: as §2

ZEAMX (Corn, Field) [5] = test: Preemergence herbicidal evaluation; format: in vivo, Zea mays; settings: rated 4-5 weeks after treatment
Outline: as §2

[6] = tested on: ECHORC (Watergrass (Calif.)); test: Preemergence weed control under flooded paddy conditions; format: in vivo, Echinochloa oryzoides; settings: rated 3-4 weeks after treatment
Outline: (§3)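 Visual injury scored 0-9 against control three to four weeks post-treatment, greenhouse-grown. Application: acetone/water (50/50) solutions dosed directly into flood water (1.5-3 cm over silt loam, planted top 0.5 cm), roughly 0.0313 to 0.500 kg/ha active ingredient.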

CYPIR (Rice Flatsedge) [7] = test: as above; format: in vivo, Cyperus iria; settings: rated 3-4 weeks after treatment
Outline: as §3

CYPSE (Flatsedge) [8] = test: as above; format: in vivo, Cyperus serotinus; settings: rated 3-4 weeks after treatment
Outline: as §3

[9] = tested on: ECHORC (Watergrass (Calif.)); test: Postemergence weed control under flooded paddy conditions; format: in vivo, Echinochloa oryzoides; settings: postemergence weeds
Outline: (§4)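 Injury ratings (0–9 scale covering stand, vigor, malformation, size, chlorosis and overall appearance versus control) were made three to four weeks after treatment. Test material, about 0.0313 to 0.500 kg/ha a.i. in 50/50 v/v aqueous/acetone, was added to flood water 1.5 to 3 cm deep over 3 to 5 cm weeds and 1.5 to 2.5 leaf rice.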

CYPIR (Rice Flatsedge) [10] = test: as above; format: in vivo, Cyperus iria; settings: postemergence weeds
Outline: as §4

CYPSE (Flatsedge) [11] = test: as above; format: in vivo, Cyperus serotinus; settings: postemergence weeds
Outline: as §4

[12] = tested on: SAGPY (Arrowhead (Pygmaea)); test: as above; format: in vivo, Sagittaria pygmaea; settings: postemergence weeds
Outline: as §4

[13] = rate 0.0313 kg/ha, 3-4 weeks after treatment
[14] = rate 0.0625 kg/ha, 3-4 weeks after treatment
[15] = rate 0.1250 kg/ha, 3-4 weeks after treatment
[16] = rate 0.2500 kg/ha, 3-4 weeks after treatment
[17] = Rate 0.2500 kg/ha, rated 3 to 4 weeks after treatment

**Q.** What does the source list for `CCOC(=O)CN1C(=O)C(CC(=O)OC)S/C1=N/c1cc(-n2c(=O)cc(C(F)(F)F)n(C)c2=O)c(F)cc1Cl` (stereo not drawn) [Compound 54, 2-{{2-Chloro-5-[3,6-dihydro-3-methyl-2,6-dioxo-4-(trifluoromethyl)-1(2H)-pyrimidinyl]-4-fluorophenyl}imino}-4-oxo-3,5-thiazolidinediacetic acid, 3-ethyl methyl ester]?
**A.** Postemergence herbicidal rating SETVI (SETVI (Foxtail, Green) [1]; Rate 0.0158 kg/ha): 9.0; Postemergence herbicidal rating SETVI (SETVI (Foxtail, Green) [1]; Rate 0.0315 kg/ha): 9.0; Postemergence herbicidal rating SETVI (SETVI (Foxtail, Green) [1]; Rate 0.0630 kg/ha): 9.0; Postemergence herbicidal rating ORYSAT (ORYSAT (Rice, Tebonnet); Rate 0.0158 kg/ha): 3.0; Postemergence herbicidal rating ORYSAT (ORYSAT (Rice, Tebonnet); Rate 0.0315 kg/ha): 3.0; Postemergence herbicidal rating ORYSAT (ORYSAT (Rice, Tebonnet); Rate 0.0630 kg/ha): 6.5; Postemergence herbicidal rating ZEAMX (ZEAMX (Corn, Field) [2]; Rate 0.0158 kg/ha): 7.5; Postemergence herbicidal rating ZEAMX (ZEAMX (Corn, Field) [2]; Rate 0.0315 kg/ha): 8.0; Postemergence herbicidal rating ZEAMX (ZEAMX (Corn, Field) [2]; Rate 0.0630 kg/ha): 9.0; Preemergence herbicidal rating ECHCG (ECHCG (Barnyardgrass); rate 0.0156 kg/ha): 0.0; Preemergence herbicidal rating ECHCG (ECHCG (Barnyardgrass); rate 0.0313 kg/ha): 0.0; Preemergence herbicidal rating ECHCG (ECHCG (Barnyardgrass); rate 0.0625 kg/ha): 0.0; Preemergence herbicidal rating ECHCG (ECHCG (Barnyardgrass); rate 0.1250 kg/ha): 2.0; Preemergence herbicidal rating ECHCG (ECHCG (Barnyardgrass); rate 0.2500 kg/ha): 5.0; Preemergence herbicidal rating ECHCG (ECHCG (Barnyardgrass); rate 0.5000 kg/ha): 9.0; Preemergence herbicidal rating SETVI (SETVI (Foxtail, Green) [3]; rate 0.0156 kg/ha): 1.0; Preemergence herbicidal rating SETVI (SETVI (Foxtail, Green) [3]; rate 0.0313 kg/ha): 2.0; Preemergence herbicidal rating SETVI (SETVI (Foxtail, Green) [3]; rate 0.0625 kg/ha): 3.5; Preemergence herbicidal rating SETVI (SETVI (Foxtail, Green) [3]; rate 0.1250 kg/ha): 7.0; Preemergence herbicidal rating SETVI (SETVI (Foxtail, Green) [3]; rate 0.2500 kg/ha): 9.0; Preemergence herbicidal rating SETVI (SETVI (Foxtail, Green) [3]; rate 0.5000 kg/ha): 9.0; Preemergence herbicidal rating TRZAWR ([4]; rate 0.0156 kg/ha): 0.0; Preemergence herbicidal rating TRZAWR ([4]; rate 0.0313 kg/ha): 0.0; Preemergence herbicidal rating TRZAWR ([4]; rate 0.0625 kg/ha): 0.0; Preemergence herbicidal rating TRZAWR ([4]; rate 0.1250 kg/ha): 1.0; Preemergence herbicidal rating TRZAWR ([4]; rate 0.2500 kg/ha): 3.0; Preemergence herbicidal rating ZEAMX (ZEAMX (Corn, Field) [5]; rate 0.0156 kg/ha): 0.0; Preemergence herbicidal rating ZEAMX (ZEAMX (Corn, Field) [5]; rate 0.0313 kg/ha): 1.0; Preemergence herbicidal rating ZEAMX (ZEAMX (Corn, Field) [5]; rate 0.0625 kg/ha): 1.0; Preemergence herbicidal rating ZEAMX (ZEAMX (Corn, Field) [5]; rate 0.1250 kg/ha): 2.0; Preemergence herbicidal rating ZEAMX (ZEAMX (Corn, Field) [5]; rate 0.2500 kg/ha): 4.0; Preemergence herbicidal rating ZEAMX (ZEAMX (Corn, Field) [5]; rate 0.5000 kg/ha): 3.0; Herbicidal rating ECHORC ([6]; 0.0313 kg/ha): 5.0; Herbicidal rating ECHORC ([6]; 0.0625 kg/ha): 5.0; Herbicidal rating ECHORC ([6]; 0.1250 kg/ha): 7.0; Herbicidal rating ECHORC ([6]; 0.2500 kg/ha): 9.0; Herbicidal rating CYPIR (CYPIR (Rice Flatsedge) [7]; 0.0313 kg/ha): 0.0; Herbicidal rating CYPIR (CYPIR (Rice Flatsedge) [7]; 0.0625 kg/ha): 4.0; Herbicidal rating CYPIR (CYPIR (Rice Flatsedge) [7]; 0.1250 kg/ha): 4.0; Herbicidal rating CYPIR (CYPIR (Rice Flatsedge) [7]; 0.2500 kg/ha): 4.0; Herbicidal rating CYPSE (CYPSE (Flatsedge) [8]; 0.0313 kg/ha): 0.0; Herbicidal rating CYPSE (CYPSE (Flatsedge) [8]; 0.0625 kg/ha): 0.0; Herbicidal rating CYPSE (CYPSE (Flatsedge) [8]; 0.1250 kg/ha): 0.0; Herbicidal rating CYPSE (CYPSE (Flatsedge) [8]; 0.2500 kg/ha): 4.0; Herbicidal rating ECHORC [9, 13]: 5.0; Herbicidal rating ECHORC [9, 14]: 5.0; Herbicidal rating ECHORC [9, 15]: 7.0; Herbicidal rating ECHORC [9, 16]: 9.0; Herbicidal rating CYPIR (CYPIR (Rice Flatsedge) [10]; [13]): 0.0; Herbicidal rating CYPIR (CYPIR (Rice Flatsedge) [10]; [14]): 4.0; Herbicidal rating CYPIR (CYPIR (Rice Flatsedge) [10]; [15]): 4.0; Herbicidal rating CYPIR (CYPIR (Rice Flatsedge) [10]; [16]): 4.0; Herbicidal rating CYPSE (CYPSE (Flatsedge) [11]; [13]): 0.0; Herbicidal rating CYPSE (CYPSE (Flatsedge) [11]; [14]): 0.0; Herbicidal rating CYPSE (CYPSE (Flatsedge) [11]; [15]): 0.0; Herbicidal rating CYPSE (CYPSE (Flatsedge) [11]; [16]): 4.0; Herbicidal rating SAGPY [12, 13]: 0.0; Herbicidal rating SAGPY [12, 14]: 0.0; Herbicidal rating SAGPY [12, 15]: 0.0; Herbicidal rating SAGPY [12, 16]: 2.0

**Q.** Which “Postemergence herbicidal rating SETVI” value (SETVI (Foxtail, Green) [1]; Rate 0.0158 kg/ha) does the source give for `Cn1c(C(F)(F)F)cc(=O)n(-c2cc(/N=C3/SC(CC(=O)O)C(=O)N3CC(=O)O)c(Cl)cc2F)c1=O` (stereo not drawn) [Compound 61, 2-{{2-Chloro-5-[3,6-dihydro-3-methyl-2,6-dioxo-4-(trifluoromethyl)-1(2H)-pyrimidinyl]-4-fluorophenyl}imino}-4-oxo-3,5-thiazolidinediacetic acid] here?
**A.** Its value is 0.0.

**Q.** And the “Postemergence herbicidal rating SETVI” value (SETVI (Foxtail, Green) [1]; Rate 0.0315 kg/ha)?
**A.** Its value is 0.0.

**Q.** And the “Postemergence herbicidal rating SETVI” value (SETVI (Foxtail, Green) [1]; Rate 0.0630 kg/ha)?
**A.** Its value is 2.0.

**Q.** And the “Postemergence herbicidal rating ORYSAT” value (ORYSAT (Rice, Tebonnet); Rate 0.0158 kg/ha)?
**A.** The value was 0.5.

**Q.** What about the “Postemergence herbicidal rating ORYSAT” value (ORYSAT (Rice, Tebonnet); Rate 0.0315 kg/ha) of the same compound?
**A.** The value was 0.5.

**Q.** What about the “Postemergence herbicidal rating ORYSAT” value (ORYSAT (Rice, Tebonnet); Rate 0.0630 kg/ha) of the same compound?
**A.** The value was 1.5.

**Q.** And the “Postemergence herbicidal rating ZEAMX” value (ZEAMX (Corn, Field) [2]; Rate 0.0158 kg/ha)?
**A.** Its value is 2.0.

**Q.** What about the “Postemergence herbicidal rating ZEAMX” value (ZEAMX (Corn, Field) [2]; Rate 0.0315 kg/ha) of the same compound?
**A.** Its value is 2.0.

**Q.** And the “Postemergence herbicidal rating ZEAMX” value (ZEAMX (Corn, Field) [2]; Rate 0.0630 kg/ha)?
**A.** Its value is 3.0.

**Q.** What about the “Preemergence herbicidal rating ECHCG” value (ECHCG (Barnyardgrass); rate 0.1250 kg/ha) of the same compound?
**A.** Its value is 0.0.

**Q.** And the “Preemergence herbicidal rating ECHCG” value (ECHCG (Barnyardgrass); rate 0.2500 kg/ha)?
**A.** Its value is 0.0.

**Q.** And the “Preemergence herbicidal rating SETVI” value (SETVI (Foxtail, Green) [3]; rate 0.1250 kg/ha)?
**A.** Its value is 0.0.

**Q.** What about the “Preemergence herbicidal rating SETVI” value (SETVI (Foxtail, Green) [3]; rate 0.2500 kg/ha) of the same compound?
**A.** The value was 1.0.

**Q.** And the “Preemergence herbicidal rating TRZAWR” value ([4]; rate 0.1250 kg/ha)?
**A.** The value was 0.0.

**Q.** And the “Preemergence herbicidal rating TRZAWR” value ([4]; rate 0.2500 kg/ha)?
**A.** Its value is 1.0.

**Q.** And the “Preemergence herbicidal rating ZEAMX” value (ZEAMX (Corn, Field) [5]; rate 0.1250 kg/ha)?
**A.** The value was 0.0.

**Q.** And the “Preemergence herbicidal rating ZEAMX” value (ZEAMX (Corn, Field) [5]; rate 0.2500 kg/ha)?
**A.** The value was 1.0.

**Q.** And the “ECHORC herbicidal effect rating” value ([6]; 0.2500 kg/ha)?
**A.** The value was 0.0.

**Q.** What about the “CYPIR herbicidal effect rating” value (CYPIR (Rice Flatsedge) [7]; 0.2500 kg/ha) of the same compound?
**A.** Its value is 0.0.

**Q.** What about the “CYPSE herbicidal effect rating” value (CYPSE (Flatsedge) [8]; 0.2500 kg/ha) of the same compound?
**A.** The value was 0.0.

**Q.** What about the “Herbicidal rating ECHORC” value [9, 17] of the same compound?
**A.** The value was 0.0.

**Q.** And the “Herbicidal rating CYPIR” value (CYPIR (Rice Flatsedge) [10]; [17])?
**A.** Its value is 0.0.

**Q.** What about the “Herbicidal rating CYPSE” value (CYPSE (Flatsedge) [11]; [17]) of the same compound?
**A.** The value was 0.0.

**Q.** And the “Herbicidal rating SAGPY” value [12, 17]?
**A.** The value was 0.0.
